Biological target: T1, mTOR (Homo sapiens, UniProt P42345)
T1 construct: FLAG; made in house
Experiment: In Vitro mTOR Kinase Assay (Echo), Test (a)(ii)
Assay type: biochemical
Details: table of enzyme assay Test (a)(ii); read-out: Test (a)(ii) IC50
In short: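 FLAG-tagged truncated mTOR (residues 1362-2549), expressed in HEK293 and purified via the FLAG tag, phosphorylated a biotinylated peptide over 2 hours at room temperature. EDTA stopped the reaction. Phospho-T389 was detected overnight by AlphaScreen using the p70 S6K T389 antibody with Protein A/streptavidin beads; IC50 reported.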

T1 sequence (P42345 1362-2549): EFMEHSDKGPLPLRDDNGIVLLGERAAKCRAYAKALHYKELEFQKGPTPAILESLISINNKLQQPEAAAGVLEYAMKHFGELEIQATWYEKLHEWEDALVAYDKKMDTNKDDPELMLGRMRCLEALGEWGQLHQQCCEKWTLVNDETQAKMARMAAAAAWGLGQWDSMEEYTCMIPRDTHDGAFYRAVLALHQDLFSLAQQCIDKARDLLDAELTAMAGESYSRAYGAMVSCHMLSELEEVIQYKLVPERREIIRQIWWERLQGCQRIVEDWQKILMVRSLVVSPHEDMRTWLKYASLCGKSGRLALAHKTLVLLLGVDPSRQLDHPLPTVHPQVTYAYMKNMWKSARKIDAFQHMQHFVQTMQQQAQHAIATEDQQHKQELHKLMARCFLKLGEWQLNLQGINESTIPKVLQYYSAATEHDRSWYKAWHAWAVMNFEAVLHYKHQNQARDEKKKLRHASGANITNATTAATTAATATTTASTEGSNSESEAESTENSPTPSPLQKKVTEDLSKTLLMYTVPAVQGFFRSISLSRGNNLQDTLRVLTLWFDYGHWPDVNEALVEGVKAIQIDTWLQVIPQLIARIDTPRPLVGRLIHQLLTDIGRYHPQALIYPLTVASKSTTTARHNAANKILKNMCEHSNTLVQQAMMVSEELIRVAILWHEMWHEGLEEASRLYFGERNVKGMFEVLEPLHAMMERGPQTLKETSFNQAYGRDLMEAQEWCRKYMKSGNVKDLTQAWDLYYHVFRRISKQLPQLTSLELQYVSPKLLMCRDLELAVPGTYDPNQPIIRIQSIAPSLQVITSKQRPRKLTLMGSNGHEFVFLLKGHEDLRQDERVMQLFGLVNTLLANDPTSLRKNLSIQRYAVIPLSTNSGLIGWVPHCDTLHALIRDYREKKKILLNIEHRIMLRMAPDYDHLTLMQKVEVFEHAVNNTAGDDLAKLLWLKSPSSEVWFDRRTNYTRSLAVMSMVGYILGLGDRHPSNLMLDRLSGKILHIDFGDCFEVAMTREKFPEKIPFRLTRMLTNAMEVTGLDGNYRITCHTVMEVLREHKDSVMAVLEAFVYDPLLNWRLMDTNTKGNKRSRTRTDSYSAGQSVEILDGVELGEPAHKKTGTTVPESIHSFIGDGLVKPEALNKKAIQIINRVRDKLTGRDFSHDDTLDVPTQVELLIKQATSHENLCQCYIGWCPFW

SMILES	IC50
CC[C@H]1COCCN1c1cc(C2(S(=O)(=O)c3ccccc3)CC2)nc(-c2ccc(NC(=O)NC)cc2)n1 [Example 74, 1-[4-[4-[1-(Benzenesulfonyl)cyclopropyl]-6-[(3S)-3-ethylmorpholin-4-yl]pyrimidin-2-yl]phenyl]-3-methylurea]	2.37 nM
CC[C@H]1COCCN1c1cc(C2(S(=O)(=O)c3ccccc3)CC2)nc(-c2ccc(NC(=O)NCCF)cc2)n1 [Example 74c, 1-[4-[4-[1-(benzenesulfonyl)cyclopropyl]-6-[(3S)-3-ethylmorpholin-4-yl]pyrimidin-2-yl]phenyl]-3-(2-fluoroethyl)urea]	3.14 nM
CC[C@H]1COCCN1c1cc(C2(S(=O)(=O)c3ccccc3)CC2)nc(-c2ccc(NC(=O)NCC(F)F)cc2)n1 [Example 74d, 1-[4-[4-[1-(benzenesulfonyl)cyclopropyl]-6-[(3S)-3-ethylmorpholin-4-yl]pyrimidin-2-yl]phenyl]-3-(2,2-difluoroethyl)urea]	2.79 nM
CC[C@H]1COCCN1c1cc(C2(S(=O)(=O)c3ccccc3)CC2)nc(-c2ccc(NC(=O)Nc3cnn(C)c3)cc2)n1 [Example 74e, 1-[4-[4-[1-(benzenesulfonyl)cyclopropyl]-6-[(3S)-3-ethylmorpholin-4-yl]pyrimidin-2-yl]phenyl]-3-(1-methylpyrazol-4-yl)urea]	5.06 nM
CC[C@H]1COCCN1c1cc(C2(S(=O)(=O)c3ccccc3)CC2)nc(-c2ccc(NC(=O)N[C@@H](C)CO)cc2)n1 [Example 74f, 1-[4-[4-[1-(benzenesulfonyl)cyclopropyl]-6-[(3S)-3-ethylmorpholin-4-yl]pyrimidin-2-yl]phenyl]-3-[(2S)-1-hydroxypropan-2-yl]urea]	3.99 nM
CC[C@H]1COCCN1c1cc(C2(S(=O)(=O)c3ccccc3)CC2)nc(-c2ccc(NC(=O)NCC3(O)CC3)cc2)n1 [Example 74i, 1-[4-[4-[1-(benzenesulfonyl)cyclopropyl]-6-[(3S)-3-ethylmorpholin-4-yl]pyrimidin-2-yl]phenyl]-3-[(1-hydroxycyclopropyl)methyl]urea]	9.25 nM
Cc1nn(C(F)F)c(C)c1S(=O)(=O)C1(c2cc(N3CCOC[C@@H]3C)nc(-c3ccc(NC(=O)NC4CC4)cc3)n2)CC1 [Example 75, 3-Cyclopropyl-1-[4-[4-[1-[1-(difluoromethyl)-3,5-dimethylpyrazol-4-yl]sulfonylcyclopropyl]-6-[(3S)-3-methylmorpholin-4-yl]pyrimidin-2-yl]phenyl]urea]	29 nM
CNC(=O)Nc1ccc(-c2nc(N3CCOC[C@@H]3C)cc(C3(S(=O)(=O)c4ccccc4Cl)CC3)n2)cc1 [Example 76a, 1-[4-[4-[1-(2-chlorophenyl)sulfonylcyclopropyl]-6-[(3S)-3-methylmorpholin-4-yl]pyrimidin-2-yl]phenyl]-3-methylurea]	4.07 nM
CCNC(=O)Nc1ccc(-c2nc(N3CCOC[C@@H]3C)cc(C3(S(=O)(=O)c4ccccc4Cl)CC3)n2)cc1 [Example 76b, 3-[4-[4-[1-(2-chlorophenyl)sulfonylcyclopropyl]-6-[(3S)-3-methylmorpholin-4-yl]pyrimidin-2-yl]phenyl]-1-ethylurea]	7.19 nM
C[C@H]1COCCN1c1cc(C2(S(=O)(=O)c3ccccc3Cl)CC2)nc(-c2ccc(NC(=O)NCCO)cc2)n1 [Example 76c, 1-[4-[4-[1-(2-chlorophenyl)sulfonylcyclopropyl]-6-[(3S)-3-methylmorpholin-4-yl]pyrimidin-2-yl]phenyl]-3-(2-hydroxyethyl)urea]	3.19 nM
C[C@H]1COCCN1c1cc(C2(S(=O)(=O)c3ccccc3Cl)CC2)nc(-c2ccc(NC(=O)NCC(F)F)cc2)n1 [Example 76d, 1-[4-[4-[1-(2-chlorophenyl)sulfonylcyclopropyl]-6-[(3S)-3-methylmorpholin-4-yl]pyrimidin-2-yl]phenyl]-3-(2,2-difluoroethyl)urea]	9.24 nM
C[C@H]1COCCN1c1cc(C2(S(=O)(=O)c3ccc(C#N)cc3)CC2)nc(-c2ccc(NC(=O)NC3CC3)cc2)n1 [Example 77, 1-[4-[4-[1-(4-Cyanophenyl)sulfonylcyclopropyl]-6-[(3S)-3-methylmorpholin-4-yl]pyrimidin-2-yl]phenyl]-3-cyclopropylurea]	8.21 nM
CNC(=O)Nc1ccc(-c2nc(N3CCOC[C@@H]3C)cc(C3(S(=O)(=O)c4ccc(C#N)cc4)CC3)n2)cc1 [Example 77a, 1-[4-[4-[1-(4-cyanophenyl)sulfonylcyclopropyl]-6-[(3S)-3-methylmorpholin-4-yl]pyrimidin-2-yl]phenyl]-3-methylurea]	5.24 nM

Continued by falling IC50, values first:

IC50	SMILES
60.8 nM	Cc1nn(C(F)F)c(C)c1S(=O)(=O)C1(c2cc(N3CCOC[C@@H]3C)nc(-c3ccc(NC(=O)Nc4cnn(C)c4)cc3)n2)CC1 [Example 75f, 1-[4-[4-[1-[1-(difluoromethyl)-3,5-dimethylpyrazol-4-yl]sulfonylcyclopropyl]-6-[(3S)-3-methylmorpholin-4-yl]pyrimidin-2-yl]phenyl]-3-(1-methylpyrazol-4-yl)urea]
43.5 nM	CNC(=O)Nc1ccc(-c2nc(N3CCOC[C@@H]3C)cc(C3(S(=O)(=O)c4c(C)nn(C(F)F)c4C)CC3)n2)cc1 [Example 75a, 1-[4-[4-[1-[1-(difluoromethyl)-3,5-dimethylpyrazol-4-yl]sulfonylcyclopropyl]-6-[(3S)-3-methylmorpholin-4-yl]pyrimidin-2-yl]phenyl]-3-methylurea]
39.9 nM	Cc1nn(C(F)F)c(C)c1S(=O)(=O)C1(c2cc(N3CCOC[C@@H]3C)nc(-c3ccc(NC(=O)NCC(F)F)cc3)n2)CC1 [Example 75d, 3-(2,2-difluoroethyl)-1-[4-[4-[1-[1-(difluoromethyl)-3,5-dimethylpyrazol-4-yl]sulfonylcyclopropyl]-6-[(3S)-3-methylmorpholin-4-yl]pyrimidin-2-yl]phenyl]urea]
38.1 nM	CCNC(=O)Nc1ccc(-c2nc(N3CCOC[C@@H]3C)cc(C3(S(=O)(=O)c4c(C)nn(C(F)F)c4C)CC3)n2)cc1 [Example 75b, 3-[4-[4-[1-[1-(difluoromethyl)-3,5-dimethylpyrazol-4-yl]sulfonylcyclopropyl]-6-[(3S)-3-methylmorpholin-4-yl]pyrimidin-2-yl]phenyl]-1-ethylurea]
37 nM	Cc1nn(C(F)F)c(C)c1S(=O)(=O)C1(c2cc(N3CCOC[C@@H]3C)nc(-c3ccc(NC(=O)NCCF)cc3)n2)CC1 [Example 75e, 1-[4-[4-[1-[1-(difluoromethyl)-3,5-dimethylpyrazol-4-yl]sulfonylcyclopropyl]-6-[(3S)-3-methylmorpholin-4-yl]pyrimidin-2-yl]phenyl]-3-(2-fluoroethyl)urea]
33.9 nM	Cc1nn(C(F)F)c(C)c1S(=O)(=O)C1(c2cc(N3CCOC[C@@H]3C)nc(-c3ccc(NC(=O)NCCO)cc3)n2)CC1 [Example 75c, 1-[4-[4-[1-[1-(difluoromethyl)-3,5-dimethylpyrazol-4-yl]sulfonylcyclopropyl]-6-[(3S)-3-methylmorpholin-4-yl]pyrimidin-2-yl]phenyl]-3-(2-hydroxyethyl)urea]
7.44 nM	CCNC(=O)Nc1ccc(-c2nc(N3[C@H](C)COC[C@@H]3C)cc(C3(S(=O)(=O)c4ccccc4)CC3)n2)cc1 [Example 73, 1-[4-[4-[1-(Benzenesulfonyl)cyclopropyl]-6-[(3R,5S)-3,5-dimethylmorpholin-4-yl]pyrimidin-2-yl]phenyl]-3-ethylurea]
6.87 nM	C[C@H]1COCCN1c1cc(C2(S(=O)(=O)c3ccccc3Cl)CC2)nc(-c2ccc(NC(=O)NC3CC3)cc2)n1 [Example 76, 1-[4-[4-[1-(2-Chlorophenyl)sulfonylcyclopropyl]-6-[(3S)-3-methylmorpholin-4-yl]pyrimidin-2-yl]phenyl]-3-cyclopropylurea]
6.78 nM	C[C@H]1COCCN1c1cc(C2(S(=O)(=O)c3ccccc3Cl)CC2)nc(-c2ccc(NC(=O)Nc3cnn(C)c3)cc2)n1 [Example 76f, 1-[4-[4-[1-(2-chlorophenyl)sulfonylcyclopropyl]-6-[(3S)-3-methylmorpholin-4-yl]pyrimidin-2-yl]phenyl]-3-(1-methylpyrazol-4-yl)urea]
5.66 nM	C[C@H]1COCCN1c1cc(C2(S(=O)(=O)c3ccccc3Cl)CC2)nc(-c2ccc(NC(=O)NCCF)cc2)n1 [Example 76e, 1-[4-[4-[1-(2-chlorophenyl)sulfonylcyclopropyl]-6-[(3S)-3-methylmorpholin-4-yl]pyrimidin-2-yl]phenyl]-3-(2-fluoroethyl)urea]
4.33 nM	CC[C@H]1COCCN1c1cc(C2(S(=O)(=O)c3ccccc3)CC2)nc(-c2ccc(NC(=O)N[C@H](C)CO)cc2)n1 [Example 74g, 1-[4-[4-[1-(benzenesulfonyl)cyclopropyl]-6-[(3S)-3-ethylmorpholin-4-yl]pyrimidin-2-yl]phenyl]-3-[(2R)-1-hydroxypropan-2-yl]urea]
4.32 nM	CCNC(=O)Nc1ccc(-c2nc(N3[C@@H](C)COC[C@@H]3C)cc(C3(S(=O)(=O)c4ccccc4)CC3)n2)cc1 [Example 72, 1-[4-[4-[1-(Benzenesulfonyl)cyclopropyl]-6-[(3S,5S)-3,5-dimethylmorpholin-4-yl]pyrimidin-2-yl]phenyl]-3-ethylurea]
3.98 nM	CC[C@H]1COCCN1c1cc(C2(S(=O)(=O)c3ccccc3)CC2)nc(-c2ccc(NC(=O)NC3CC3)cc2)n1 [Example 74a, 1-[4-[4-[1-(benzenesulfonyl)cyclopropyl]-6-[(3S)-3-ethylmorpholin-4-yl]pyrimidin-2-yl]phenyl]-3-cyclopropylurea]
3.21 nM	CC[C@H]1COCCN1c1cc(C2(S(=O)(=O)c3ccccc3)CC2)nc(-c2ccc(NC(=O)NCCCO)cc2)n1 [Example 74h, 1-[4-[4-[1-(benzenesulfonyl)cyclopropyl]-6-[(3S)-3-ethylmorpholin-4-yl]pyrimidin-2-yl]phenyl]-3-(3-hydroxypropyl)urea]
2.44 nM	CC[C@H]1COCCN1c1cc(C2(S(=O)(=O)c3ccccc3)CC2)nc(-c2ccc(NC(=O)NCCO)cc2)n1 [Example 74b, 1-[4-[4-[1-(benzenesulfonyl)cyclopropyl]-6-[(3S)-3-ethylmorpholin-4-yl]pyrimidin-2-yl]phenyl]-3-(2-hydroxyethyl)urea]

From patent US20090018134A1, “Compounds - 945” (AstraZeneca AB, priority 2007, published 2009)
